Experimental data: US8163728B2, “Pyrazoles” (Hoffmann-La Roche Inc., priority 2009, dated 2012)

Target: T1, GABA A α5 (Homo sapiens, UniProt P18507+P31644)
T1 construct: expressed in transfected cells; host or cells: HEK293 cells, transiently transfected; membranes prepared from cell pellets
Assay: [3H]flumazenil competition binding, human GABA A α5β3γ2 receptors in HEK293 cell membranes
Settings: human receptor α5β3γ2 transiently transfected in HEK293; 0.5 nM [3H]flumazenil; 1 hour at 4° C.; means of two determinations; read-out: hKi GABA A α5
Experimental: The affinity of compounds at GABA A receptor subtypes was measured by competition for [3H]flumazenil (85 Ci/mmol; Roche) binding to HEK293 cells expressing rat (stably transfected) or human (transiently transfected) receptors of composition α1β3γ2, α2β3γ2, α3β3γ2 and α5β3γ2.
Cell pellets were suspended in Krebs-tris buffer (4.8 mM KCl, 1.2 mM CaCl2, 1.2 mM MgCl2, 120 mM NaCl, 15 mM Tris; pH 7.5; binding assay buffer), homogenized by polytron for ca. 20 sec on ice and centrifuged for 60 min at 4° C. (50000 g; Sorvall, rotor: SM24=20000 rpm). The cell pellets were re-suspended in Krebs-tris buffer and homogenized by polytron for ca. 15 sec on ice. Protein was measured (Bradford method, Bio-Rad) and aliquots of 1 mL were prepared and stored at −80° C.
Assays were incubated to equilibrium for 1 hour at 4° C. and harvested onto GF/C uni-filters (Packard) by filtration using a Packard harvester and washing with ice-cold wash buffer (50 mM Tris; pH 7.5). After drying, filter-retained radioactivity was detected by liquid scintillation counting. Ki values were calculated using Excel-Fit (Microsoft) and are the means of two determinations.

| Ki [nM] | Structure (SMILES) |
| --- | --- |
| 41.3 | Cc1onc(-c2ccccc2)c1COc1cc(C(=O)N2CCOCC2)[nH]n1 [Example 1, [5-(5-Methyl-3-phenyl-isoxazol-4-ylmethoxy)-2H-pyrazol-3-yl]morpholin-4-yl-methanone] |
| 32.4 | Cc1onc(-c2ccccc2)c1COc1cc(C(=O)NC(C)C)[nH]n1 [Example 2, 5-(5-Methyl-3-phenyl-isoxazol-4-ylmethoxy)-2H-pyrazole-3-carboxylic acid isopropylamide] |
| 3.1 | Cc1onc(-c2ccccc2)c1COc1cc(C(=O)NC2CCOCC2)[nH]n1 [Example 3, 5-(5-Methyl-3-phenyl-isoxazol-4-ylmethoxy)-2H-pyrazole-3-carboxylic acid (tetrahydro-pyran-4-yl)-amide] |
| 14.6 | Cc1onc(-c2ccccc2)c1COc1cc(C(=O)NN(C)C)[nH]n1 [Example 5, 5-(5-Methyl-3-phenyl-isoxazol-4-ylmethoxy)-2H-pyrazole-3-carboxylic acid N′,N′-dimethyl-hydrazide] |
| 17.5 | Cc1onc(-c2ccccc2)c1COc1cc(C(=O)NCCO)[nH]n1 [Example 6, 5-(5-Methyl-3-phenyl-isoxazol-4-ylmethoxy)-2H-pyrazole-3-carboxylic acid (2-hydroxy-ethyl)-amide] |
| 36.3 | Cc1onc(-c2ccccc2)c1COc1cc(C(N)=O)[nH]n1 [Example 7, 5-(5-Methyl-3-phenyl-isoxazol-4-ylmethoxy)-2H-pyrazole-3-carboxylic acid amide] |
| 1.8 | Cc1onc(-c2ccc(F)cc2)c1COc1cc(C(=O)NN2CCOCC2)[nH]n1 [Example 8, 5-[3-(4-Fluoro-phenyl)-5-methyl-isoxazol-4-ylmethoxy]-2H-pyrazole-3-carboxylic acid morpholin-4-ylamide] |
| 3.8 | Cc1onc(-c2ccc(F)cc2)c1COc1cc(C(=O)NN2CCCC2)[nH]n1 [Example 10, 5-[3-(4-Fluoro-phenyl)-5-methyl-isoxazol-4-ylmethoxy]-2H-pyrazole-3-carboxylic acid pyrrolidin-1-ylamide] |
| 4.9 | Cc1onc(-c2ccc(F)cc2)c1COc1cc(C(=O)NN(C)C)[nH]n1 [Example 11, 5-[3-(4-Fluoro-phenyl)-5-methyl-isoxazol-4-ylmethoxy]-2H-pyrazole-3-carboxylic acid N′,N′-dimethyl-hydrazide] |
| 2.3 | Cc1onc(-c2ccc(F)cc2)c1COc1cc(C(=O)NC(C)C)[nH]n1 [Example 12, 5-[3-(4-Fluoro-phenyl)-5-methyl-isoxazol-4-ylmethoxy]-2H-pyrazole-3-carboxylic acid isopropylamide] |
| 0.5 | Cc1onc(-c2ccc(F)cc2)c1COc1cc(C(=O)NC2CCOCC2)[nH]n1 [Example 13, 5-[3-(4-Fluoro-phenyl)-5-methyl-isoxazol-4-ylmethoxy]-2H-pyrazole-3-carboxylic acid (tetrahydro-pyran-4-yl)-amide] |
| 9.3 | Cc1onc(-c2ccccn2)c1COc1cc(C(=O)NC(C)C)n[nH]1 [Example 14, 5-(5-Methyl-3-pyridin-2-yl-isoxazol-4-ylmethoxy)-1H-pyrazole-3-carboxylic acid isopropylamide] |
| 2.5 | Cc1onc(-c2ccccn2)c1COc1cc(C(=O)NC2CCOCC2)n[nH]1 [Example 15, 5-(5-Methyl-3-pyridin-2-yl-isoxazol-4-ylmethoxy)-1H-pyrazole-3-carboxylic acid (tetrahydropyran-4-yl)-amide] |
| 11.1 | Cc1onc(-c2ccccn2)c1COc1cc(C(=O)N[C@@H](C)CO)n[nH]1 [Example 16, 5-(5-Methyl-3-pyridin-2-yl-isoxazol-4-ylmethoxy)-1H-pyrazole-3-carboxylic acid ((S)-2-hydroxy-1-methyl-ethyl)-amide] |
| 1.2 | Cc1onc(-c2ccc(F)cn2)c1COc1cc(C(=O)NCC(F)(F)F)[nH]n1 [Example 17, 5-[3-(5-Fluoro-pyridin-2-yl)-5-methyl-isoxazol-4-ylmethoxy]-2H-pyrazole-3-carboxylic acid (2,2,2-trifluoro-ethyl)-amide] |
| 17.8 | Cc1onc(-c2ccc(F)cn2)c1COc1cc(C(=O)NC(C)(C)C)[nH]n1 [Example 19, 5-[3-(5-Fluoro-pyridin-2-yl)-5-methyl-isoxazol-4-ylmethoxy]-2H-pyrazole-3-carboxylic acid tert-butylamide] |
| 4 | Cc1onc(-c2ccc(F)cn2)c1COc1cc(C(=O)NCCO)[nH]n1 [Example 20, 5-[3-(5-Fluoro-pyridin-2-yl)-5-methyl-isoxazol-4-ylmethoxy]-2H-pyrazole-3-carboxylic acid (2-hydroxy-ethyl)-amide] |
| 2.5 | Cc1onc(-c2ccc(F)cn2)c1COc1cc(C(=O)NC(C)C)[nH]n1 [Example 21, 5-[3-(5-Fluoro-pyridin-2-yl)-5-methyl-isoxazol-4-ylmethoxy]-2H-pyrazole-3-carboxylic acid isopropylamide] |

| Ki [nM] | Structure (SMILES) |
| --- | --- |
| 6.7 | Cc1onc(-c2ccc(F)cn2)c1COc1cc(C(=O)NN(C)C)[nH]n1 [Example 22, 5-[3-(5-Fluoro-pyridin-2-yl)-5-methyl-isoxazol-4-ylmethoxy]-2H-pyrazole-3-carboxylic acid N′,N′-dimethyl-hydrazide] |
| 1.9 | Cc1onc(-c2ccc(F)cn2)c1COc1cc(C(=O)NN2CCOCC2)[nH]n1 [Example 23, 5-[3-(5-Fluoro-pyridin-2-yl)-5-methyl-isoxazol-4-ylmethoxy]-2H-pyrazole-3-carboxylic acid morpholin-4-ylamide] |
| 3.5 | Cc1onc(-c2ccc(F)cn2)c1COc1cc(C(=O)NN2CCCC2)[nH]n1 [Example 24, 5-[3-(5-Fluoro-pyridin-2-yl)-5-methyl-isoxazol-4-ylmethoxy]-2H-pyrazole-3-carboxylic acid pyrrolidin-1-ylamide] |
| 13.6 | O=C(NN1CCOCC1)c1cc(OCc2conc2-c2ccc(F)cn2)n[nH]1 [Example 25, 5-[3-(5-Fluoro-pyridin-2-yl)-isoxazol-4-ylmethoxy]-2H-pyrazole-3-carboxylic acid morpholin-4-ylamide] |
| 2.3 | CCCCc1noc(C)c1COc1cc(C(=O)NC2CCOCC2)[nH]n1 [Example 26, 5-(3-Butyl-5-methyl-isoxazol-4-ylmethoxy)-2H-pyrazole-3-carboxylic acid (tetrahydropyran-4-yl)-amide] |
| 7.8 | CCCCc1noc(C)c1COc1cc(C(=O)N[C@@H](C)CO)[nH]n1 [Example 27, 5-(3-Butyl-5-methyl-isoxazol-4-ylmethoxy)-2H-pyrazole-3-carboxylic acid ((S)-2-hydroxy-1-methyl-ethyl)-amide] |
| 10.4 | CCCCc1noc(C)c1COc1cc(C(=O)NC(CO)CO)[nH]n1 [Example 29, 5-(3-Butyl-5-methyl-isoxazol-4-ylmethoxy)-2H-pyrazole-3-carboxylic acid (2-hydroxy-1-hydroxymethyl-ethyl)-amide] |
| 6.4 | CCCCc1noc(C)c1COc1cc(C(=O)NCC(F)(F)F)[nH]n1 [Example 31, 5-(3-Butyl-5-methyl-isoxazol-4-ylmethoxy)-2H-pyrazole-3-carboxylic acid (2,2,2-trifluoro-ethyl)-amide] |
| 15.7 | CCCCc1noc(C)c1COc1cc(C(=O)NC(C)C)[nH]n1 [Example 32, 5-(3-Butyl-5-methyl-isoxazol-4-ylmethoxy)-2H-pyrazole-3-carboxylic acid isopropylamide] |
| 20.2 | CCCCc1noc(C)c1COc1cc(C(=O)NCCO)[nH]n1 [Example 33, 5-(3-Butyl-5-methyl-isoxazol-4-ylmethoxy)-2H-pyrazole-3-carboxylic acid (2-hydroxyethyl)-amide] |
| 53.5 | CCCCc1noc(C)c1COc1cc(C(=O)N2CCOCC2)[nH]n1 [Example 36, [5-(3-Butyl-5-methyl-isoxazol-4-ylmethoxy)-2H-pyrazol-3-yl]morpholin-4-yl-methanone] |
| 38.7 | CCCCc1noc(C)c1COc1cc(C(=O)NN(C)C)[nH]n1 [Example 38, 5-(3-Butyl-5-methyl-isoxazol-4-ylmethoxy)-2H-pyrazole-3-carboxylic acid N′,N′-dimethylhydrazide] |
| 5.8 | CCCCc1noc(C)c1COc1cc(C(=O)NN2CCOCC2)[nH]n1 [Example 39, 5-(3-Butyl-5-methyl-isoxazol-4-ylmethoxy)-2H-pyrazole-3-carboxylic acid morpholin-4-ylamide] |
| 21.5 | CCCCc1noc(C)c1COc1cc(C(=O)NN2CCCC2)[nH]n1 [Example 40, 5-(3-Butyl-5-methyl-isoxazol-4-ylmethoxy)-2H-pyrazole-3-carboxylic acid pyrrolidin-1-ylamide] |
| 27.2 | CCCCc1noc(C)c1COc1cc(C(=O)NN2CCCCC2)[nH]n1 [Example 41, 5-(3-Butyl-5-methyl-isoxazol-4-ylmethoxy)-2H-pyrazole-3-carboxylic acid piperidin-1-ylamide] |
| 15.9 | Cc1onc(-c2ccccc2)c1COc1cc(C(=O)NCCO)n(C)n1 [Example 42, 2-Methyl-5-(5-methyl-3-phenyl-isoxazol-4-ylmethoxy)-2H-pyrazole-3-carboxylic acid (2-hydroxy-ethyl)-amide] |
| 3.1 | Cc1onc(-c2ccccc2)c1COc1cc(C(=O)NC2CCOCC2)n(C)n1 [Example 44, 2-Methyl-5-(5-methyl-3-phenyl-isoxazol-4-ylmethoxy)-2H-pyrazole-3-carboxylic acid (tetra-hydro-pyran-4-yl)-amide] |
